# US20250353856A1, “COMPOUND ACTIVE AS INHIBITOR OF COLONY STIMULATION FACTOR-1 RECEPTOR (CSF-1R)” (Norwegian University of Science and Technology (NTNU), priority 2022, published 2025)
# Like-named read-outs stand apart in the source and are kept apart here.
# Assays:
# CSF1R enzyme = CSF1R enzyme (Homo sapiens (Human), UniProt P07333); assay: CSF1R enzymatic inhibitory assay (Z'-LYTE, FRET); assay type: biochemical; conditions: Z'-LYTE assay platform, 10-point titrations in duplicates, ATP equal to Km
# Chain of CSF1R enzyme (P07333 20-972): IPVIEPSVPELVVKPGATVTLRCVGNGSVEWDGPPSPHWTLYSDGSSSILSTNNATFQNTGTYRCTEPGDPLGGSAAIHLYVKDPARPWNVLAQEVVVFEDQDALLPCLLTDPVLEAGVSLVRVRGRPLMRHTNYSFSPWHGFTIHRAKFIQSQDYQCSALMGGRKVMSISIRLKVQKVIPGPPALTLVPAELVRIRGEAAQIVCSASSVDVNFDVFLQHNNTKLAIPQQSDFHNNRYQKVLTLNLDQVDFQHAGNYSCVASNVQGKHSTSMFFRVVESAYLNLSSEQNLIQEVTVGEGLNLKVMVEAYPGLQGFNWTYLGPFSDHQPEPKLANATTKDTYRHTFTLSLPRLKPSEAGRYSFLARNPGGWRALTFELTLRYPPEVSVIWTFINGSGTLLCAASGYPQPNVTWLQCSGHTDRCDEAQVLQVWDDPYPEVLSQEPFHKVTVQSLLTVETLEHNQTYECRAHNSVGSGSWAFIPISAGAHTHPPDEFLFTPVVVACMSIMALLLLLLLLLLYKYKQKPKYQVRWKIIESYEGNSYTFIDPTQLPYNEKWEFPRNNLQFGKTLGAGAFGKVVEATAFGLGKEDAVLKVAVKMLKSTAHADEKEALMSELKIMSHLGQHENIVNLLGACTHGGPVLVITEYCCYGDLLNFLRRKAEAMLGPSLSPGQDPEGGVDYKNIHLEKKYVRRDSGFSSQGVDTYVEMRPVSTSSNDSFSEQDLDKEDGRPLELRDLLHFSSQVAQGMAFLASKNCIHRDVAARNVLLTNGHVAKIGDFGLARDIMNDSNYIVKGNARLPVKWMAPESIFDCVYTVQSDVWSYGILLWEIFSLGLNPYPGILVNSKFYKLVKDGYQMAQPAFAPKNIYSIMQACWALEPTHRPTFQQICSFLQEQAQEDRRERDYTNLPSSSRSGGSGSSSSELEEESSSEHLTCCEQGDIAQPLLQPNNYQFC
# [1] = molecular target: CSF1R in bone-marrow derived macrophages from mice (Mus musculus (Mouse), UniProt P09581); assay: Effect of CSF1R inhibitors on MAPK signalling in mouse bone-marrow derived macrophages; assay type: cell-based; conditions: for BMDM fold relative to PLX3397: Fold change: IC50 inhibitor/IC50 PLX3397, mouse BMDM
# Chain of CSF1R in bone-marrow derived macrophages from mice (P09581 20-977): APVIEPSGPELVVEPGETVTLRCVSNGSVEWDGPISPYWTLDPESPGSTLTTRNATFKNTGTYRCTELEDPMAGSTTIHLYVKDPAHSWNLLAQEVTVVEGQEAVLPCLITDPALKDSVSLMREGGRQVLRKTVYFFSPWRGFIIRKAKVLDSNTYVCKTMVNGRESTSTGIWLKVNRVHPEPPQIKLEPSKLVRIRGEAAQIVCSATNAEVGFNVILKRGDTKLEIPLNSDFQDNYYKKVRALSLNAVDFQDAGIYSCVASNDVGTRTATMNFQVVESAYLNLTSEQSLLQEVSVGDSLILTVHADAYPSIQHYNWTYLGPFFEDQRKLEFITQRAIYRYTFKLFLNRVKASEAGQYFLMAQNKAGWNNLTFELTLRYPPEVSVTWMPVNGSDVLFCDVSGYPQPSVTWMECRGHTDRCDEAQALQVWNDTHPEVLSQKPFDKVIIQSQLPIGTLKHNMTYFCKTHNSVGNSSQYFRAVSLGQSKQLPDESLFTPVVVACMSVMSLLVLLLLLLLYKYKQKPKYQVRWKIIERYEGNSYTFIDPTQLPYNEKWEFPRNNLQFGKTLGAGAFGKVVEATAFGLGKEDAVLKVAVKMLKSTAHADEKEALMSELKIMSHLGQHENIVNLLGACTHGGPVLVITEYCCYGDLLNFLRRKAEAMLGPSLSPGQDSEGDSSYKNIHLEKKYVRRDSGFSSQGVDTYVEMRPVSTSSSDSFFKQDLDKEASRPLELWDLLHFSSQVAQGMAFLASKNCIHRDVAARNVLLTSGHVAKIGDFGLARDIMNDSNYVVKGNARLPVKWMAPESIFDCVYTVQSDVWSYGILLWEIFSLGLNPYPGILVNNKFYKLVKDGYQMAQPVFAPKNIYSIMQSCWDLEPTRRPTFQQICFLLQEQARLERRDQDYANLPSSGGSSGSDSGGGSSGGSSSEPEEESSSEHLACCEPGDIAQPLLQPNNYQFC
IC50 (CSF1R enzyme),BMDM fold relative to PLX3397 [1],IC50 ([1]; read-out: BMDM IC50),SMILES,IC50 [1]
1.3 nM,1 fold,130 nM,"OCc1ccc(-c2cc3c(Cc4ccccc4)ncnc3[nH]2)cc1 [Compound 5a, (4-(4-Benzyl-7H-pyrrolo[2,3-d]pyrimidin-6-yl)phenyl)methanol]",
0.7 nM,5 fold,487 nM,"OCc1ccc(-c2cc3c(Cc4ccccc4F)ncnc3[nH]2)cc1 [Compound 5b, (4-(4-(2-Fluorobenzyl)-7H-pyrrolo[2,3-d]pyrimidin-6-yl)phenyl)methanol]",
1.9 nM,>5 fold,> 500 nM,"OCc1ccc(-c2cc3c(Cc4cccc(F)c4)ncnc3[nH]2)cc1 [Compound 5c, (4-(4-(3-Fluorobenzyl)-7H-pyrrolo[2,3-d]pyrimidin-6-yl)phenyl)methanol]",
3.1 nM,4.1 fold,320 nM,"OCc1ccc(-c2cc3c(Cc4ccc(F)cc4)ncnc3[nH]2)cc1 [Compound 5d, (4-(4-(4-Fluorobenzyl)-7H-pyrrolo[2,3-d]pyrimidin-6-yl)phenyl)methanol]",
1 nM,>3 fold,> 300 nM,"Cc1ccc(Cc2ncnc3[nH]c(-c4ccc(CO)cc4)cc23)cc1 [Compound 5e, (4-(4-(4-Methylbenzyl)-7H-pyrrolo[2,3-d]pyrimidin-6-yl)phenyl)methanol]",
0.6 nM,0.8 fold,71 nM,"CC(C)c1ccc(Cc2ncnc3[nH]c(-c4ccc(CO)cc4)cc23)cc1 [Compound 5f, (4-(4-(4-Isopropylbenzyl)-7H-pyrrolo[2,3-d]pyrimidin-6-yl)phenyl)methanol]",
1.6 nM,1.7 fold,174 nM,"CC(C)(C)c1ccc(Cc2ncnc3[nH]c(-c4ccc(CO)cc4)cc23)cc1 [Compound 5g, (4-(4-(4-(tert-Butyl)benzyl)-7H-pyrrolo[2,3-d]pyrimidin-6-yl)phenyl)methanol]",
3.6 nM,>5 fold,> 500 nM,"OCc1ccc(-c2cc3c(Cc4ccc(C(F)(F)F)cc4)ncnc3[nH]2)cc1 [Compound 5h, (4-(4-(4-(Trifluoromethyl)benzyl)-7H-pyrrolo[2,3-d]pyrimidin-6-yl)phenyl)methanol]",
3.8 nM,>5 fold,> 500 nM,"CC(c1ccccc1)c1ncnc2[nH]c(-c3ccc(CO)cc3)cc12 (centres unmarked) [Compound 5i, (4-(4-(1-Phenylethyl)-7H-pyrrolo[2,3-d]pyrimidin-6-yl)phenyl)methanol]",
29 nM,>5 fold,> 500 nM,"CCC(c1ccccc1)c1ncnc2[nH]c(-c3ccc(CO)cc3)cc12 (centres unmarked) [Compound 5j, (4-(4-(1-Phenylpropyl)-7H-pyrrolo[2,3-d]pyrimidin-6-yl)phenyl)methanol]",
2.7 nM,1.3 fold,100 nM,"OCc1ccc(-c2cc3c(C(F)c4ccccc4)ncnc3[nH]2)cc1 (centres unmarked) [Compound 5k, (4-(4-(Fluoro(phenyl)methyl)-7H-pyrrolo[2,3-d]pyrimidin-6-yl)phenyl)methanol]",
1.5 nM,1 fold,107 nM,"OCc1ccc(-c2cc3c(Oc4ccccc4)ncnc3[nH]2)cc1 [Compound 9, (4-(4-Phenoxy-7H-pyrrolo[2,3-d]pyrimidin-6-yl)phenyl)methanol]",
11 nM,,,"COc1ccc(-c2cc3c(Cc4ccccc4)ncnc3[nH]2)cc1 [Compound 10, 4-Benzyl-6-(4-methoxyphenyl)-7H-pyrrolo[2,3-d]pyrimidine]",
2.1 nM,,,"CS(=O)(=O)Nc1ccc(-c2cc3c(Cc4ccccc4)ncnc3[nH]2)cc1 [Compound 14, N-(4-(4-Benzyl-7H-pyrrolo[2,3-d]pyrimidin-6-yl)phenyl)methanesulfonamide]",
7.2 nM,,,"c1ccc(Cc2ncnc3[nH]c(-c4ccccc4)cc23)cc1 [Compound 15, 4-Benzyl-6-phenyl-7H-pyrrolo[2,3-d]pyrimidine]",
1.7 nM,,,"CNS(=O)(=O)c1ccc(-c2cc3c(Cc4ccccc4)ncnc3[nH]2)cc1 [Compound 16, 4-(4-Benzyl-7H-pyrrolo[2,3-d]pyrimidin-6-yl)-N-methylbenzenesulfonamide]",
2 nM,,,"CC(C)n1cc(-c2cc3c(Cc4ccccc4)ncnc3[nH]2)cn1 [Compound 17, 4-Benzyl-6-(1-isopropyl-1H-pyrazol-4-yl)-7H-pyrrolo[2,3-d]pyrimidine]",
0.4 nM,,,"Cc1nn(C)cc1-c1cc2c(Cc3ccccc3)ncnc2[nH]1 [Compound 18, 4-Benzyl-6-(1,3-dimethyl-1H-pyrazol-4-yl)-7H-pyrrolo[2,3-d]pyrimidine]",
1.5 nM,,,"CP(C)(=O)c1ccc(-c2cc3c(Cc4ccccc4)ncnc3[nH]2)cc1 [Compound 19, (4-(4-Benzyl-7H-pyrrolo[2,3-d]pyrimidin-6-yl)phenyl)dimethylphosphine oxide]",
,,,"FC(F)(F)c1ccc(CNc2ccc(Cc3c[nH]c4ncc(Cl)cc34)cn2)cn1 [PLX3397, reference compound]",70 to 150 nM
